Data reported in publication PMC4451856, “Identification of a Peptide from In vivo Bacteriophage Display with Homology to EGFL6: A Candidate Tumor Vasculature Ligand in Breast Cancer” (Journal of molecular biomarkers & diagnosis, 2014).
Peptide text beside a SMILES is read from it. * marks the point of attachment. DOTA = O=C(O)CN1CCN(CC(=O)O)CCN(CC(=O)*)CCN(CC(=O)O)CC1

Assays:
in vivo = experiment: in vivo; set-up: species or system SCID mice; details: SCID (outbred, Taconic), mouse, iv, total radioactivity
Description: Four- to 6-week-old Severe Combined Immunodeficient (SCID) out bred mice (Taconic, Germantown, NY) was maintained in approved pathogen-free institutional housing. Animal studies were conducted as outlined in the NIH Guidelines for the Care and Use of Laboratory Animals and the Policy and Procedures for Animal Research of the Harry S. Truman Veterans Memorial Hospital. MDA-MB-435 human breast cancer xenografts (5×10^6) were established by subcutaneous injection into the flank of SCID mice. Mice were utilized when visual tumors (~1–3mm^3) formed after approximately 5 weeks.
DOTA-EGFL6 peptide was radiolabeled with ^111In and purified peptide was prepared at 1.85 MBq/mL in sterile PBS. Three mice bearing MDA-MB-435 tumors were intravenously injected with ^111In-DOTA-EGFL6 and sacrificed at 2 h. Organs and tissues pertinent to tumor uptake and clearance were excised, weighed, and counted by gamma counter. Percentage of injected dose per gram (%ID/g) of tissue was reported to normalize uptake by tissue mass.

MDA-MB-435 cells [1] = experiment: 111In-DOTA-EGFL6 cell binding; assay type: cell-based, human; details: 37°C, 1 h, gamma counter, mean ± SD of 4 samples
Description: (§1) DOTA-EGFL6 was diluted to 1 mg/mL in water and incubated with 0.1 M ammonium acetate (pH 5) and 18.5 MBq of ^111In at 80°C for 1 h. Reactions were quenched by addition of 10 µM EDTA. Radiolabeled peptide was purified by reverse phase HPLC using a linear gradient of acetonitrile plus 0.1% trifluoroacetic acid from 5–95% over 35 minutes. Acetonitrile was evaporated by nitrogen gas flow, and peptide was d iluted to appropriate concentration using sterile PBS.
(§2) MDA-MB-435, MDA-MB-468, SK-BR-3 and HEK-293 cells were diluted to 2×10^6 cells/mL in Dulbelco’s Modified Eagle Medium (DMEM) with 0.1 mg/mL BSA. ^111In-DOTA-EGFL6 was diluted to 1×10^7 CPM/mL in DMEM plus 0.1% BSA and 100 µL of peptide was added to 200 µL of cells and incubated at 37°C for 1 h. Cells were washed three times with ice-cold PBS with 1% BSA and counted via gamma counter.

HEK-293 cells [2] = experiment: 111In-DOTA-EGFL6 cell binding; assay type: cell-based, human; details: 37°C, 1 h, gamma counter, mean ± SD of 4 samples
Description: as §1, §2

SK-BR-3 cells [3] = experiment: 111In-DOTA-EGFL6 cell binding; assay type: cell-based, human; details: 37°C, 1 h, gamma counter, mean ± SD of 4 samples
Description: as §1, §2

MDA-MB-468 cells [4] = experiment: 111In-DOTA-EGFL6 cell binding; assay type: cell-based, human; details: 37°C, 1 h, gamma counter, mean ± SD of 4 samples
Description: as §1, §2

[5] = tested on: MDA-MB-435 human breast cancer xenograft; assay type: in vivo, SCID mice; details: 2 h post-injection, intravenous
Description: Four- to 6-week-old Severe Combined Immunodeficient (SCID) out bred mice (Taconic, Germantown, NY) was maintained in approved pathogen-free institutional housing. Animal studies were conducted as outlined in the NIH Guidelines for the Care and Use of Laboratory Animals and the Policy and Procedures for Animal Research of the Harry S. Truman Veterans Memorial Hospital. MDA-MB-435 human breast cancer xenografts (5×10^6) were established by subcutaneous injection into the flank of SCID mice. Mice were utilized when visual tumors (~1–3mm^3) formed after approximately 5 weeks. Radiolabeled, purified ^111In-DOTA-GSG-EGFL6 was diluted to 11.1 MBq in 100 µL of sterile PBS. The peptide was injected intravenously in a mouse bearing an MDA-MB-435 human breast cancer xenograft. Following injection, radiolabeled peptide was permitted to circulate for 2h, followed by euthanization by carbon dioxide. The treated mouse was imaged at the Harry S. Truman Veterans Memorial Hospital Biomolecular Imaging Center. Overnight (7h) image acquisition was performed with a Siemens Inveon Micro-SPECT/CT (Siemens, Knoxville, TN) equipped with mouse whole body 1.0 mm collimators. Data were processed with Inveon Research Workplace processing software and fan beam (Feldkamp) filtered back projection algorithms were used for reconstruction of the CT tomographic image.

MDA-MB-435 cells [6] = details: ref Previous work (reference number not given); cited from earlier work
MDA-MB-435 cells [7] = experiment: Biotinylated peptide fluorescent microscopy; assay type: cell-based, human; details: fixed MDA-MB-435 cells, 10 µM biotinylated peptide in PBS, 1 h room temperature, Neutravidin Texas Red detection
Description: (§3) All cell lines were grown to 80% confluency and fixed with 4% paraformaldehyde. Cells were dried onto microscope slides overnight followed by rehydration with PBS. Slides were blocked with 5% BSA in PBS for 2 h at room temperature. Biotinylated EGFL6 peptide was diluted to 10 µM in PBS and 100 µL was added to each cell sample for incubation at room temperature for 1 h. Slides were washed 3 times with 0.1% TBST and cells were incubated with Neutravidin Texas Red (Life Technologies, Rockville, MD) diluted to 5 µg/mL in 0.1% TBST for 1 h at room temperature. Washing was performed in the same manner and cells were visualized by an epifluorescent Nikon T1-SM inverted microscope (Nikon, Melville, NY).

HEK-293 cells [8] = experiment: Biotinylated peptide fluorescent microscopy; assay type: cell-based, human; details: fixed HEK-293 cells, 10 µM biotinylated peptide in PBS, 1 h room temperature, Neutravidin Texas Red detection
Description: as §3

MDA-MB-468 cells [9] = experiment: Biotinylated peptide fluorescent microscopy; assay type: cell-based, human; details: fixed MDA-MB-468 cells, 10 µM biotinylated peptide in PBS, 1 h room temperature, Neutravidin Texas Red detection
Description: as §3

SK-BR-3 cells [10] = experiment: Biotinylated peptide fluorescent microscopy; assay type: cell-based, human; details: fixed SK-BR-3 cells, 10 µM biotinylated peptide in PBS, 1 h room temperature, Neutravidin Texas Red detection
Description: as §3

C[C@H](NC(=O)[C@H](Cc1c[nH]c2ccccc12)NC(=O)[C@H](CCCCN)NC(=O)[C@@H](NC(=O)CNC(=O)CNC(=O)[C@H](CO)NC(=O)CNC(=O)CN1CCN(CC(=O)O)CCN(CC(=O)O)CCN(CC(=O)O)CC1)[C@@H](C)O)C(=O)N[C@@H](CS)C(=O)N[C@@H](CS)C(=O)N[C@@H](Cc1ccc(O)cc1)C(=O)NCC(=O)N[C@@H](Cc1c[nH]c2ccccc12)C(=O)N[C@@H](CCCNC(=N)N)C(=O)N[C@@H](CC(N)=O)C(=O)N[C@@H](CO)C(=O)N[C@@H](CO)C(=O)O [^111In-DOTA-EGFL6, metal not drawn] ({DOTA}-GSGGTKWACCYGWRNSS-OH; N-terminus and C-terminus assumed)
tissue uptake at 2 h (in vivo; Blood retention): 1.3 ± 0.51 %ID/g | tissue uptake at 2 h (in vivo; Kidney retention): 28.6 ± 4.24 %ID/g | tissue uptake at 2 h (in vivo; Non-target organ accumulation, all organs measured except the kidneys): < 1 %ID/g | tissue to tissue ratio at 2 h (in vivo; Tumor to blood ratio): 0.27 | tissue to tissue ratio at 2 h (in vivo; Tumor to muscle ratio): 2.7 | tissue uptake at 2 h (in vivo; Tumor uptake): 0.36 ± 0.08 %ID/g | Peptide binding, % of total peptide added (MDA-MB-435 cells [1]): 12.3 ± 1.0% | Peptide binding, % of total peptide added (HEK-293 cells [2]): 5.4 ± 0.5% | Peptide binding, % of total peptide added (SK-BR-3 cells [3]): 4.7 ± 0.2% | Peptide binding, % of total peptide added (MDA-MB-468 cells [4]): 10.5% ± 2.7 | Radiolabel at interface between xenograft and muscle (vasculature-like binding) in SPECT/CT image [5]: strikingly high concentration of radiolabel | Tumor uptake in SPECT/CT image ([5]; 11.1 MBq, one mouse): low tumor uptake

GTKSKCCYSLRRSS [3-G03, phage selected peptide with 64% homology to EGFL6]
Binding to MDA-MB-435 cells in vitro (MDA-MB-435 cells [6]): bound to MDA-MB-435 cells

GTKWACCYGWRNSS [Biotinylated EGFL6 peptide, EGFL6 peptide with N-terminal GSG spacer conjugated at the N-terminus with biotin]
Peptide binding by fluorescent microscopy (MDA-MB-435 cells [7]): bound strongly | Peptide binding by fluorescent microscopy (HEK-293 cells [8]): no binding | Peptide binding by fluorescent microscopy (MDA-MB-468 cells [9]): bound strongly

GTKWACCYGWRNSS [EGFL6 peptide]
Peptide binding by fluorescent microscopy (SK-BR-3 cells [10]): undetectable
